Laboratory results from patent EP0623608B1, “BENZOPYRAN DERIVATIVE, PRODUCTION THEREOF, AND PHARMACEUTICAL PREPARATION CONTAINING THE SAME AS ACTIVE INGREDIENT” (TEIJIN LIMITED, priority 1992, dated 1993).

Target: ACAT enzyme
Test: Measurement of ACAT enzyme inhibitory activity of rabbit small intestinal microsomes
Assay type: biochemical
Settings: rabbit small intestinal mucosa microsome fraction 0.5 mg/ml, 43 µM oleoyl CoA containing [1-14C]oleoyl CoA, 37°C for 10 minutes
Protocol: Measurement of ACAT enzyme inhibitory activity (measurement of ACAT enzyme inhibitory activity of rabbit small intestinal microsomes
Rabbit small intestinal mucosa microsome was prepared and the ACAT enzyme activity was measured by the method of Salone and Field (reference: Biochemica et Biophysica, vol. 712, p. 557 (1982)) with a slight modification.
Using a 40 mM phosphate buffer containing 30 mM EDTA, 50 mM KCl, and 1.0M sucrose and having a pH of 7.4 (buffer A), rabbit small intestinal mucosa was homogenized. This was centrifuged at 10,000 x g and 4°C for 30 minutes to provide a supernatant. The supernatant was further centrifuged at 105,000 x g and 4°C for 1 hour to provide a precipitate. The precipitate was resuspended in the buffer A and used as the microsome fraction.
To the buffer A containing 43 µM bovine serum albumin and 0.5 mg/ml microsome fraction was added various concentrations of each specimen compound (compounds obtained in Examples 1, 3 to 5, and 7 to 14) in dimethylsulfoxide in amounts of 1% v/v. The mixture was heated at 37°C for 5 minutes. […]
0.111 kBq of [^3H] cholesteryl oleate and IN hydrochloric acid were added, and the mixture was stirred. The cholesteryl oleate extracted into the chloroform layer was isolated by a thin layer chromatography, and the radioactivity was measured as the ACAT activity.

IC50: 130 nM
SMILES: CCCCCCCCCCOc1ccc2c(=O)ccoc2c1NC(=O)C(C)(C)C [Example 8, N-(7-decyloxyl-4-oxo-4H-1-benzopyran8-yl)-2,2-dimethylpropanamide]
